Entries after “also recorded” stand apart in the source; their conditions may differ.
System: JCV-infected human astrocytes
Assay: ^3H-FLT uptake in uninfected and JCV-infected human astrocytes (TK1 activity)
Type: cell-based
Conditions: JCV-infected astrocytes compared to uninfected astrocytes; uptake as a measure of TK1 activity
Experimental: The activity of TK1 in uninfected and JCV-infected human astrocytes was determined by analyzing the cellular uptake of ^3H-FLT, a radiolabeled TK1 substrate.

Cc1cn([C@H]2C[C@H](F)[C@@H](CO)O2)c(=O)[nH]c1=O [^3H-FLT]
^3H-FLT uptake: higher in JCV-infected astrocytes as compared to uninfected astrocytes; also recorded: elevated levels of TK1 activity, as determined by uptake of ^3H-FLT, compared to uninfected cells
